# Laboratory results published in patent US20230277553A1, “THERAPEUTIC COMPOSITION OF CURE-PRO COMPOUNDS FOR TARGETED DEGRADATION OF BET DOMAIN PROTEINS, AND METHODS OF MAKING AND USAGE” (CORNELL UNIVERSITY, priority 2020, published 2023).
# Entries after “also recorded” stand apart in the source; their conditions may differ. Residues, ends and D or L forms follow the SMILES beside them. *: point of attachment. Cbz = O=C(OCc1ccccc1)*
# Assays:
# Format in all cases: cell-based
# BRD4 [1] = target: T1, BRD4 (Homo sapiens, UniProt O60885); assay: CURE-PRO-mediated BRD4 degradation, Western blot, HeLa cells; set-up: endogenous in cells; host or cells: HeLa; details: 24 h, Western blot
# How it was run: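 HeLa cells treated 24 h with compounds in DMSO (1-10 μM, 10 μM or 100 μM each; paired monomers combined 1:1), optional 15-min pretreatment with pomalidomide, VHL298, Nutlin3a (10 μM) or MG-132/carfilzomib (1 μM). RIPA lysates, 10-20 μg protein immunoblotted for BRD4 with β-actin, ECL detection.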
# BRD4 [2] = target: T1, BRD4; assay: Summary of BRD4 degradation by CURE-PRO pairs, estimated from Western Blot or WES (Proteinsimple); set-up: endogenous in cells
# Description: A black check mark indicates efficacy of 30% to 70% or higher protein degradation.
# MV-4-11 cells = assay: CellTiter-Glo cell viability, MV-4-11 cells; details: for Loss of cellular viability / toxicity, cotreated with cereblon ligands 8046, 8047 and 8066 vs monomers alone: MV-4-11, 72 hours, 1:1, 10 nM-100 μM each
# Protocol: CellTiter-Glo® 2.0 Cell Viability Assay (Promega) was carried out following the manufacturer's recommendations. Cells were seeded at a density of 1000 cells/well in a white 96 well plates (Corning, #3917) in a total volume of 100 μl with respective monomers, combinations of BRD ligands together with E3 ligase ligands or vehicle control treatment. After a 72 h incubation, 100 ul of the CellTiter-Glo® substrate was added per well and luminescence was read on a Spectramax M5 (Molecular Devices). Dose-response curves were generated using Graphpad Prism software.
# MV-4-11 cells (5×104) were treated for 24 hours with the sample compounds solubilized in DMSO. The compounds were added at 1 nM-100 μM each. Cellular viability was determined using the CellTiter-Glo® Luminescent Cell Viability Assay (Promega) described above. FIGS. 19-22 depict the CURE-PRO-mediated loss of cellular viability for BRD monomers (JQ1 derivatives comprising of catechol linkers), and CRBN ligand, 8049 (pomalidomide derivatives comprising boronic acid linkers) combined in a 1:1 ratio.
# MV-4-11 cells (1×104) were treated for 72 hours with the compounds solubilized in DMSO. Compounds were added at 10 nM-100 μM each. Cellular viability was determined using the CellTiter-Glo® Luminescent Cell Viability Assay (Promega) described above. FIGS. 47-54 depict the CURE-PRO-mediated loss of cellular viability for BRD monomers (JQ1 derivatives comprising of boronic acid linkers), and CRBN ligands, 8046, 8047 and 8066 (pomalidomide derivatives comprising diol linkers) combined in a 1:1 ratio.
# BRD4 [3] = target: T1, BRD4; assay: CURE-PRO-mediated BRD4 degradation with VHL ligands, WES (ProteinSimple), MCF7 cells; set-up: endogenous in cells; details: for Inhibition of BRD-E2 + 8305 mediated BRD4 degradation by proteasome inhibitor / Inhibition of BRD-E20 + 8305 mediated BRD4 degradation by proteasome inhibitor: MCF7, monomers 10 μM each, inhibitor 1 μM pre-incubation
# Protocol: (§1) All cell lines were purchased from ATCC or DSMZ and grown at 37° C. with 5% CO2. Human HeLa cells were cultured in complete growth medium (Dulbecco's modified Eagle's medium (DMEM) supplemented with 10% FBS); MCF7 cells were cultured in complete growth medium (Dulbecco's modified Eagle's medium (DMEM) supplemented with 10% FBS and 0.01 mg/ml human recombinant insulin (Sigma Aldrich); Namalwa and MOLM-13 cells were cultured in complete growth medium (RPMI 1640 medium supplemented with 10% FBS); MV-4-11 were cultured in complete growth medium (Iscove's Modified Dulbecco's medium, supplemented with 10% FBS); HCT116 cells were cultured in complete growth medium (McCoy's 5a Medium supplemented with 10% FBS). For cellular degradation of BRD4 studies, cells were seeded in a 12-well plate at 70-80% confluency, allowed to attach overnight, and incubated with the indicated compounds for the indicated time. When indicated, a 15-minute pretreatment with 10 μM pomalidomide, 10 μM VHL298, 10 μM Nutlin3a, 1 μM MG-132 or 1 μM Carfilzomib was performed before the addition of CURE-PROs. For washout studies, after CURE-PRO treatment, media was aspirated and incubated with complete medium for the indicated time before lysis.
# (§2) WES Simple analysis was performed on WES system (ProteinSimple-Biotechne) according to the manufacturer's instructions. Total protein concentrations of cell lysates were determined by the Pierce BCA kit (Thermo Fisher). 3 μL of 0.3 μg/μL of the protein lysate was loaded onto a 12- to 230-kDa WES assay plate (ProteinSimple) where 300 nL sample was withdrawn through a capillary, subjected to electrophoretic separation of proteins by size, and followed by the simultaneous, HRP-based detection of proteins using the Anti-Rabbit Detection Module (Proteinsimple: #DM-001). The electropherograms were checked then the automatic peak detection was manually corrected if it was required.
# MCF7 cells (3×10^6) were treated for 4-24 hours continually (FIG. 72), or treated for 4h, washed and incubated for a further 4-24 h with the compounds solubilized in DMSO. Compounds were added at 10 μM each. Cells were washed, lysed, and clarified by centrifugation. The total protein concentration was quantified by the BCA method (ThermoFisher Sciences). Standardized protein samples were electrophoresed and imaged as described in the WES Proteinsimple section above. FIG. 69 depicts the CURE-PRO-mediated BRD4 degradation for the BRD-E50 monomer, and VHL ligand, 8305.
# (§3) MCF7 cells (3×10^6) were treated for 24 hours with the compounds solubilized in DMSO. CURE-PRO monomers were added at 10 μM each and the proteasomal inhibitors at 1 μM. Standardized protein samples were electrophoresed and imaged as described in the WES Proteinsimple section above. FIGS. 73 and 75 depicts the dependence of the proteasome for CURE-PRO-mediated BRD4 degradation.
# MCF7 cells (3×10^6) were treated for 24 hours with the compounds solubilized in DMSO. CURE-PRO monomers were added at 10 μM. FIG. 74 depicts the CURE-PRO-mediated BRD4 degradation for the BRD-E50 monomer, and VHL ligand, 8305 combined in a 1:1 ratio after 24 h.
# BRD4 [4] = target: T1, BRD4; assay: CURE-PRO-mediated BRD4 degradation with MDM2 ligands, WES (ProteinSimple), HCT116 cells; set-up: endogenous in cells; details: HCT116, monomers 10 μM each, inhibitor 1 μM pre-incubation
# Protocol: as §1, §2
# (§4) HCT116 cells (3×10^6) were treated for 24 hours with the compounds solubilized in DMSO. Compounds were added at 1 μM-10 μM each. Standardized protein samples were electrophoresed and imaged as described in the WES ProteinSimple section above. FIGS. 59, 60, and 61 depict the concentration-dependence of CURE-PRO-mediated BRD4 degradation using MDM2 ligands.
# as §4, with “62” for “59, 60,”, “63” for “61”
# as §3, with “HCT116” for “MCF7”, “ProteinSimple” for “Proteinsimple”, “FIG. 68” for “FIGS. 73 and 75”
structure (smiles),measurement,setting,value
"COc1ccc2c(c1)C(c1ccc(Cl)cc1)=N[C@@H](CC(=O)NCCNC(=O)/C=C/c1ccc(B(O)O)cc1)c1nnc(C)n1-2 [BRD-E29, (4-((E)-3-((2-(2-((4S)-6-(4-chlorophenyl)-8-methoxy-1-methyl-4H-benzo[f][1,2,4]triazolo[4,3-a][1,4]diazepin-4-yl)acetamido)ethyl)amino)-3-oxoprop-1-en-1-yl)phenyl)boronic acid]","BRD4 degradation, co-treatment with CRBN ligand 8046","BRD4 [1]; 1:1 with 8046, 10 μM each",causes degradation of BRD4; also recorded: Degradation is noted
same,"BRD4 degradation, co-treatment with CRBN ligand 8047","BRD4 [1]; 1:1 with 8047, 10 μM each",causes degradation of BRD4; also recorded: Degradation is noted
same,"BRD4 degradation, co-treatment with CRBN ligand 8066","BRD4 [1]; 1:1 with 8066, 10 μM each (BRD-E10: 10 and 100 μM)",causes degradation of BRD4; also recorded: Degradation is noted
same,Degradation of BRD4 in combination with CRBN ligand [drawing 371],"BRD4 [2]; Table 1, CRBN ligand, second drawing (8047)",✓ (A black check mark indicates efficacy of 30% to 70% or higher protein degradation)
same,Degradation of BRD4 in combination with CRBN ligand [drawing 372],"BRD4 [2]; Table 1, CRBN ligand, third drawing (8066)",✓ (A black check mark indicates efficacy of 30% to 70% or higher protein degradation)
same,Degradation of BRD4 in combination with CRBN ligand [drawing 370],"BRD4 [2]; Table 1, aromatic 1,2-diol- or hindered cis-1,2-diol-containing CRBN ligand, first drawing (8046)",✓ (A black check mark indicates efficacy of 30% to 70% or higher protein degradation)
same,"Loss of cellular viability / toxicity, cotreated with cereblon ligands 8046, 8047 and 8066 vs monomers alone",MV-4-11 cells,reduced viability; also recorded: increased toxicity
"COc1ccc2c(c1)C(c1ccc(Cl)cc1)=N[C@@H](CC(=O)Nc1cccc(B(O)O)c1)c1nnc(C)n1-2 [BRD-E73, (3-(2-((4S)-6-(4-chlorophenyl)-8-methoxy-1-methyl-4H-benzo[f][1,2,4]triazolo[4,3-a][1,4]diazepin-4-yl)acetamido)phenyl)boronic acid]","Loss of cellular viability / toxicity, cotreated with cereblon ligands 8046, 8047 and 8066 vs monomers alone",MV-4-11 cells,reduced viability; also recorded: increased toxicity
"CCNC(=O)C[C@@H]1N=C(c2ccc(Cl)cc2)c2cc(Sc3ccc(B(O)O)cc3)ccc2-n2c(C)nnc21 [BRD-E75, (4-(((4S)-6-(4-chlorophenyl)-4-(2-(ethylamino)-2-oxoethyl)-1-methyl-4H-benzo[f][1,2,4]triazolo[4,3-a][1,4]diazepin-8-yl)thio)phenyl)boronic acid]","Loss of cellular viability / toxicity, cotreated with cereblon ligands 8046, 8047 and 8066 vs monomers alone",MV-4-11 cells,reduced viability; also recorded: increased toxicity
CCNC(=O)C[C@@H]1N=C(c2ccc(Cl)cc2)c2cc(OCCCCCCCNC(=O)c3ccc(B(O)O)cc3)ccc2-n2c(C)nnc21 [BRD-E78],Degradation of BRD4 in combination with VHL ligand [drawing 397],"BRD4 [2]; Table 3, aromatic 1,2-diol-containing VHL ligand, second drawing (8305)",✓ (A black check mark indicates efficacy of 30% to 70% or higher protein degradation)
same,"Loss of cellular viability / toxicity, cotreated with cereblon ligands 8046, 8047 and 8066 vs monomers alone",MV-4-11 cells,reduced viability; also recorded: increased toxicity
"COc1ccc2c(c1)C(c1ccc(Cl)cc1)=N[C@@H](CC(=O)NCCCCCNC(=O)c1cccc(O)c1O)c1nnc(C)n1-2 [BRD-N8, N-(5-(2-((4S)-6-(4-chlorophenyl)-8-methoxy-1-methyl-4H-benzo[f][1,2,4]triazolo[4,3-a][1,4]diazepin-4-yl)acetamido)pentyl)-2,3-dihydroxybenzamide]","Loss of cellular viability / toxicity, co-dosed with CRBN ligand 8049","MV-4-11 cells; MV-4-11, 24 hours, 1:1 with 8049, 1 nM-100 μM each",concentration-dependent loss in cellular viability; also recorded: increased toxicity
CC(C)C[C@H](NC(=O)[C@H](CCc1ccccc1)NC(=O)CN1CCOCC1)C(=O)N[C@@H](Cc1ccccc1)C(=O)N[C@@H](CC(C)C)C(=O)[C@@]1(C)CO1 [Carfilzomib],Inhibition of BRD-E2 + 8305 mediated BRD4 degradation by proteasome inhibitor,BRD4 [3],inhibited by the pre-incubation
same,Inhibition of BRD-E20 + 8305 mediated BRD4 degradation by proteasome inhibitor,BRD4 [3],inhibited by the pre-incubation
same,Inhibition of BRD-N25 + 8310 mediated BRD4 degradation by proteasome inhibitor,BRD4 [4],inhibited by the pre-incubation
CC(C)C[C@@H](C=O)NC(=O)[C@H](CC(C)C)NC(=O)[C@H](CC(C)C)NC(=O)OCc1ccccc1 [MG-132] (Cbz-Leu-Leu-Leu-aldehyde),Inhibition of BRD-E2 + 8305 mediated BRD4 degradation by proteasome inhibitor,BRD4 [3],inhibited by the pre-incubation
same,Inhibition of BRD-E20 + 8305 mediated BRD4 degradation by proteasome inhibitor,BRD4 [3],inhibited by the pre-incubation
same,Inhibition of BRD-N25 + 8310 mediated BRD4 degradation by proteasome inhibitor,BRD4 [4],inhibited by the pre-incubation
Cc1ncsc1-c1ccc(CNC(=O)[C@@H]2C[C@@H](O)CN2C(=O)[C@@H](NC(=O)C2(C#N)CC2)C(C)(C)C)cc1 [VHL298],Inhibition of BRD-E50 + 8305 mediated BRD4 degradation by preincubation,"BRD4 [3]; MCF7, equimolar final concentrations (10 μM)",attenuates CURE-PRO mediated BRD4 degradation; also recorded: inhibited CURE-PRO mediated degradation; also recorded: inhibits the degradation of BRD4
O=C1CCC(N2C(=O)c3cccc(CNC(=O)c4cccc(B(O)O)c4)c3C2=O)C(=O)N1 (stereo not drawn) [compound 8049],"Loss of cellular viability, monomer alone","MV-4-11 cells; MV-4-11, 24 hours, 1 nM-100 μM",little loss of viability was observed
"Cc1ncsc1-c1ccc(CNC(=O)[C@@H]2C[C@@H](O)CN2C(=O)[C@@H](NC(=O)c2cccc(O)c2O)C(C)(C)C)cc1 [compound 8305, (2S,4R)-1-((S)-2-(2,3-dihydroxybenzamido)-3,3-dimethylbutanoyl)-4-hydroxy-N-(4-(4-methylthiazol-5-yl)benzyl)pyrrolidine-2-carboxamide]","BRD4 degradation, monomer alone (WES)","BRD4 [3]; MCF7, 10 μM",no degradation of BRD4
